Measured values taken from patent publication US11045475B2, “Application of methyl 4-[9-(6-aminopuryl)]-2(s)-hydroxybutyrate in preparation of medicament for treating psoriasis and vitiligo” (SHANGHAI INSTITUTE OF MATERIA MEDICA, CHINESE ACADEMY OF …, priority 2016, dated 2021).

Experiments:
cells = conditions: background statement; cited from earlier work
IL-17 = IL-17 ELISA of damaged skin extract of imiquimod-induced psoriasis mice; type: in vivo, female balb/c mice; conditions: after 7 days of ointment treatment, FIG. 3
Source text: FIG. 3 illustrates the inhibition of IL-17 level in psoriatic lesions induced by imiquimod with methyl 4-[9-(6-aminopuryl)]-2(s)-hydroxybutyrate in mice. Skin of the lesions is taken on Day 7 of imiquimod-induced psoriasis modeling, and its IL-17 content is detected by ELISA. *P<0.05, n≥5. The groups in FIG. 3 are the normal control group, model control group and ointment treatment group.
Construction of animal models with psoriasis: normal control group, model control group, calcipotriol ointment control group, ointment treatment group, n=10/group. […]
(§1) Treatment: dorsal skin of the mice of the normal control group and model control group was applied with ointment base of 62.5 mg from Example 1 every day, and the dorsal skin of the mice of calcipotriol control group was applied with Calcipotriol Ointment of 62.5 mg every day, and the dorsal skin of the mice of ointment treatment group was applied with methyl 4-[9-(6-aminopuryl)]-2(s)-hydroxybutyrate ointment of 62.5 mg. […] Based on PASI score system, the erythema (FIG. 1A), scales (FIG. 1B) and skin thickening (FIG. 1C) of the dorsal skin were scored (0-4). […]
The mice were weighed when the psoriasis was more serious after 7 days of treatment; the mice were sacrificed, and the spleens of each group were removed and weighed. […] Inflammatory factor (IL-17) of the extract was detected by ELISA (FIG. 3).

[1] = target: S-adenosyl-L-homocysteine hydrolase (SAHH) (Homo sapiens, UniProt P23526); conditions: background statement; cited from earlier work
[2] = tested on: psoriasis induced by imiquimod in mice; experiment: Imiquimod-induced psoriasis in mice, ointment treatment, PASI scoring and skin lesion photographs; type: in vivo, female balb/c mice; conditions: 62.5 mg ointment (0.2 g per 10 g) on dorsal skin every day, observed over 15 days, FIG. 1
Source text: Testing materials: the ointment base from Example 1; the methyl 4-[9-(6-aminopuryl)]-2(s)-hydroxybutyrate ointment from Example 2, and per 10 g of the ointment contains 0.2 g of methyl 4-[9-(6-aminopuryl)]-2(s)-hydroxybutyrate.
Modeling drug: Imiquimod Cream produced by SICHUAN MED-SHINE PHARMACEUTICAL CO., LTD.; SDA (State Drugs Administration) License No.: GUOYAOZHUNZI H20030128; Lot No.: 15060139.
Positive control drug: Calcipotriol Ointment produced by CHONGQING HUAPONT PHARM CO., LTD., SDA (State Drugs Administration) License No.: GUOYAOZHUNZI H20113541; Lot No.: 2015002.
Experimental animals: female balb/c mice with body weight of 18-22 g, provided by SHANGHAI SLAC LABORATORY ANIMAL CO., LTD. […]
as §1

[3] = tested on: systemic lupus erythematosus (SLE); conditions: animal models, background statement; cited from earlier work
spleen swelling = experiment: Spleen weight / spleen index in imiquimod-induced psoriasis mice; type: in vivo, female balb/c mice; conditions: after 7 days of ointment treatment, FIG. 2A, 2B
Source text: (§2) FIG. 2 illustrates the inhibition of spleen swelling and T lymphocyte activation in spleen induced by imiquimod with methyl 4-[9-(6-aminopuryl)]-2(s)-hydroxybutyrate in mice. Mice models are weighed (FIG. 2A) and euthanized on Day 7 of imiquimod-induced psoriasis modeling, and spleens of the mice were weighed to calculate spleen index (FIG. 2B); naive T cells (CD3^+CD4^+CD44^−CD62L^+) ratio (FIG. 2C, 2D), and active T cells (CD3^+CD4^+CD44^+CD62L^−) ratio (FIG. 2C, 2E) are detected. *P<0.05, ***P<0.001, n≥5. The groups in FIG. 2 are the normal control group, model control group and ointment treatment group. FIG. 2C is for CD3^+CD4^+ T cells, and FIGS. 2D and 2E show the ratio of CD3^+CD4^+ T cells in all spleen lymphocytes. […]
as §1

[4] = tested on: experimental autoimmune encephalomyelitis (EAE); conditions: animal models, background statement; cited from earlier work
[5] = tested on: T lymphocyte activation in spleen; experiment: Flow cytometry of naive and active T cells in spleen lymphocytes of imiquimod-induced psoriasis mice; type: in vivo, female balb/c mice; conditions: after 7 days of ointment treatment, FIG. 2C-2E
Source text: as §2, §1

S-adenosyl-L-homocysteine hydrolase (SAHH), sequence (P23526 whole entry, species assumed): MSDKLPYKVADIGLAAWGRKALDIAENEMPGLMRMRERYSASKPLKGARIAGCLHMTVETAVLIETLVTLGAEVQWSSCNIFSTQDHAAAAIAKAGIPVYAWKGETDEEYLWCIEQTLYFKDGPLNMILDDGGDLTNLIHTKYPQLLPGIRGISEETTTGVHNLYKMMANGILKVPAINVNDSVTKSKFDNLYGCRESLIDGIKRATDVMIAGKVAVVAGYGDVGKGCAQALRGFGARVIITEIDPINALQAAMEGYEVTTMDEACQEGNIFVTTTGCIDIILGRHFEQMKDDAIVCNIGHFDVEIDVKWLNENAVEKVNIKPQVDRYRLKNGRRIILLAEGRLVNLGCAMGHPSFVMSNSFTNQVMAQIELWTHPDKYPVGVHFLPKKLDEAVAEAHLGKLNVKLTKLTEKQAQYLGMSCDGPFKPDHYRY

## COC(=O)C(O)CCn1cnc2c(N)ncnc21 (centres unmarked) [methyl 4-[9-(6-aminopuryl)]-2(s)-hydroxybutyrate]
cells
  cytotoxicity: low cytotoxicity
IL-17
  level of IL-17 in the damaged skin: inhibited the level of IL-17 in the damaged skin
[1]
  type of SAHH inhibition: type III inhibitor of SAHH
[2]
  PASI scores of erythema, scales, skin thickening and total score of skin lesion severity: relieved psoriasis induced by imiquimod in mice effectively
[3]
  therapeutic effect on SLE: good therapeutic effect
Spleen swelling
  spleen swelling (spleen index): improved spleen swelling in mice with psoriasis induced by imiquimod significantly
[4]
  therapeutic effect on EAE: good therapeutic effect
[5]
  T lymphocyte activation (ratio of naive and active T cells in spleen lymphocytes): inhibited T lymphocyte activation in mice with psoriasis induced by imiquimod
